Source: patent publication US20090048185A1, “Therapeutic Drug for Suppressing Functions of NKT Cells Containing Glycolipid Derivative as Active Ingredient” (priority 2005, published 2009)

Assays:
[1] = system: collagen induced arthritis (CIA); settings: literature (Chiba et al., Arthritis Rheum. 2004); cited from earlier work
[2] = system: experimental autoimmune encephalomyelitis (EAE); settings: literature (Miyamoto et al., Nature 2001); cited from earlier work
NKT cells = test: Effect of the compound on NKT cells (liver mononuclear cells incubated with compound); type: cell-based, C57BL/6J mice; settings: 48 hours incubation, FIG. 4
Experimental: Mononuclear cells were isolated from the liver of C57BL/6J mice (8 weeks old, female) and are incubated with the compound for 48 hours.

| Structure (SMILES) | suppression of diseases in CIA [1] | suppression of diseases in EAE [2] | IFN-γ production (ELISA, supernatant) (NKT cells) | IL-4 production (ELISA, supernatant) (NKT cells) | cell proliferation (uptake of tritium thymidine) (NKT cells) |
| --- | --- | --- | --- | --- | --- |
| CCCCCCCCCCCCCCCCCCCCCCCC(=O)N[C@@H](COC1OC(CO)C(O)C(O)C1O)[C@H](O)[C@H](O)CCCCC (some centres unmarked) [OCH] | high effectiveness | high effectiveness |  |  |  |
| CCCCCCCCCCCCCCCCCCCCCCCCCC(=O)N[C@@H](COC1OC(CO)C(O)C(O)C1O)[C@H](O)[C@H](O)CCCCCCCCCCCCCC (stereo partly drawn) [α-GC, α-galactosyl ceramide] |  |  | induced | induced | induced |
